Values quoted from earlier work as cited in US20100009005A1, “Novel acetysalicylic acid formulations” (Flamel Technologies ,S.A., priority 2005, published 2010).

time of peak plasma concentrations (after oral administration): 2 to 3 h
half life (in vivo): about 17 hours
SMILES: CS(=O)(=O)c1ccc(C2=C(c3ccccc3)C(=O)OC2)cc1 [rofecoxib]
